Where two headings read alike, the source gives them in different places.
Columns and labels:
E. coli 16327 = assay: microbe, parasite or virus in culture
MRSA 15903 = assay: microbe, parasite or virus in culture; type: cell-based, Staphylococcus aureus
Method in brief: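 Values are FIC indexes, summing each agent's MIC in combination divided by its MIC alone, for MRSA 15903. Interpretation: <0.5 clear re-sensitization, 0.5 to 4 marginal or none, >4 antagonistic.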

[1] = test system: E. coli K-12 resistant wild type; type: cell-based, Escherichia coli; conditions: E. coli AG100 (w.t.)
[2] = test system: E. coli K-12 efflux knockout mutant; type: cell-based, Escherichia coli; conditions: E. coli AG100A (efflux−)
Method in brief: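 Broth microdilution, inocula 10^5 bacteria/ml, 24 h at 37 °C. Growth read as OD620 against calibration standards.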

S. aureus 15819 = assay: Antibiotic MIC by microdilution with or without sub-MIC polymer; type: cell-based, Staphylococcus aureus; conditions: S. aureus 15819
S. maltophila 748 = assay: as above; type: cell-based, Stenotrophomonas maltophila
E. coli 14384 = assay: as above; type: cell-based, Escherichia coli; conditions: E. coli 14384
Method in brief: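 Bacterial suspension (10^5 per ml) was added to medium carrying serially diluted antibiotic and the lipopeptide […]. After 24 hours at 37° C, proliferation was measured at 620 nm. The MIC was taken from this optical density read-out.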

S. aureus 43300 [3] = assay: as above; type: cell-based, Staphylococcus aureus
E. coli 14182 = assay: as above; type: cell-based, Escherichia coli
S. aureus 43300 [4] = assay: as above; type: cell-based, Staphylococcus aureus; conditions: no polymer (None)
[5] = polymer at ¼ of its MIC (Table 16)
[6] = polymer at ½ of its MIC (Table 16)
[7] = polymer at ⅓ of its MIC (Table 16)
[8] = +¼ MIC (1.6 μM) C12K(KNC12K)3NH2
[9] = +⅓ MIC (2.1 μM) C12K(KNC12K)3NH2

CN(C)[C@@H]1C(O)=C(C(N)=O)C(=O)[C@@]2(O)C(O)=C3C(=O)c4c(O)cccc4[C@@](C)(O)[C@H]3C[C@@H]12 [Tetracycline, tetracycline]
Antibiotic MIC (E. coli 16327; E. coli 16327, +½ MIC (3.12 μM) C14(9-ene)KKNC12KNH2): 32 µg/mL | MIC, ½ + MIC OAK (E. coli 16327; E. coli U16327, with C12K(KNC10K)3NH2 (SEQ ID NO: 10) at ½ of its MIC): 64 µg/mL | Antibiotic MIC in presence of C12K(NC8K)7NH2 (SEQ ID NO: 4), +½ MIC (E. coli 16327; E. coli U-16327, polymer at ½ of its MIC): 32 µg/mL | MIC (MRSA 15903; MRSA 15903, +¼ polymer MIC (1.6 μM) NC12(KNC12K)2NH2): 0.5 µg/mL | MIC (MRSA 15903; MRSA 15903, +½ polymer MIC (3.1 μM) NC12(KNC12K)2NH2): 0.004 µg/mL | MIC (MRSA 15903; MRSA 15903, +⅓ polymer MIC (2.1 μM) NC12(KNC12K)2NH2): 0.25 µg/mL | MIC, ¼ + MIC OAK (MRSA 15903; MRSA 15903, with C12K(KNC10K)3NH2 (SEQ ID NO: 10) at ¼ of its MIC): 1 µg/mL | MIC, ½ + MIC OAK (MRSA 15903; MRSA 15903, with C12K(KNC10K)3NH2 (SEQ ID NO: 10) at ½ of its MIC): 0.25 µg/mL | MIC, ⅓ + MIC OAK (MRSA 15903; MRSA 15903, with C12K(KNC10K)3NH2 (SEQ ID NO: 10) at ⅓ of its MIC): 1 µg/mL | MIC (MRSA 15903; S. aureus CI-15903, +polymer (¼ MIC) C12(5-ene)KKNC12KNH2): 0.5 µg/mL | MIC (MRSA 15903; S. aureus CI-15903, +polymer (½ MIC) C12(5-ene)KKNC12KNH2): 0.06 µg/mL | MIC (MRSA 15903; S. aureus CI-15903, +polymer (⅓ MIC) C12(5-ene)KKNC12KNH2): 0.1 µg/mL | MIC (MRSA 15903; Staphylococcus aureus, MRSA, 24 h, MRSA 15903, antibiotic alone (Table 22), read-out: MIC, Alone): 1 µg/mL | MIC (MRSA 15903; Staphylococcus aureus, MRSA, 24 h, MRSA 15903, antibiotic alone, read-out: MIC): 0.5 µg/mL | MIC (MRSA 15903; Staphylococcus aureus, MRSA, 24 h, S. aureus CI-15903, alone, read-out: MIC): 0.5 µg/mL | Antibiotic MIC in presence of C12K(NC8K)7NH2 (SEQ ID NO: 4), +¼ MIC [1, 5]: 1 to 2 µg/mL | Antibiotic MIC in presence of C12K(NC8K)7NH2 (SEQ ID NO: 4), +½ MIC [1, 6]: 0.25 to 0.5 µg/mL | Antibiotic MIC in presence of C12K(NC8K)7NH2 (SEQ ID NO: 4), +⅓ MIC [1, 7]: 0.5 µg/mL | Antibiotic MIC, None ([2]; antibiotic alone (Table 16)): 0.5 µg/mL | Antibiotic MIC, None ([2]; antibiotic alone (Table 17)): 0.5 µg/mL | Antibiotic MIC in presence of C12K(NC8K)7NH2 (SEQ ID NO: 4), +¼ MIC [2, 5]: 0.5 µg/mL | Antibiotic MIC in presence of C12K(NC8K)7NH2 (SEQ ID NO: 4), +½ MIC [2, 6]: 0.25 to 0.5 µg/mL | Antibiotic MIC in presence of C12K(NC8K)7NH2 (SEQ ID NO: 4), +⅓ MIC [2, 7]: 0.5 µg/mL | Antibiotic MIC (S. aureus 15819; +¼ MIC (1.6 μM) C12(5-ene)KKNC12KNH2): 0.25 µg/mL | Antibiotic MIC (S. aureus 15819; [8]): 0.5 µg/mL | Antibiotic MIC (S. aureus 15819; +¼ MIC (1.6 μM) C12KKNC12KNH2): 0.5 µg/mL | Antibiotic MIC (S. aureus 15819; +½ MIC (3.12 μM) C12KKNC12KNH2): 0.5 µg/mL | Antibiotic MIC (S. aureus 15819; [9]): 0.25 µg/mL | Antibiotic MIC (S. aureus 15819; +⅓ MIC (2.1 μM) C12KKNC12KNH2): 0.5 µg/mL | Antibiotic MIC (S. aureus 15819; no polymer (None), Table 8): 0.25 µg/mL | Antibiotic MIC (S. aureus 15819; no polymer (None), Table 11): 0.5 µg/mL | Antibiotic MIC (S. aureus 15819; no polymer (None), Table 13): 0.5 µg/mL | Antibiotic MIC (S. maltophila 748; [8]): 64 µg/mL | Antibiotic MIC (S. maltophila 748; +½ MIC (3.12 μM) C12K(KNC12K)3NH2): 32 µg/mL | Antibiotic MIC (S. maltophila 748; [9]): 64 µg/mL | Antibiotic MIC (E. coli 14384; +½ MIC (3.12 μM) C14(9-ene)KKNC12KNH2): 32 µg/mL | Antibiotic MIC (E. coli 14384; +½ MIC C12K(NC8K)5NH2): 32 to 64 µg/mL | Antibiotic MIC in presence of C12K(NC8K)7NH2 (SEQ ID NO: 4), +½ MIC (E. coli 14384; polymer at ½ of its MIC): 64 µg/mL | Antibiotic MIC (S. aureus 43300 [3]; +¼ MIC (1.6 μM) C12K(KNC12K)2NH2): 0.5 µg/mL | Antibiotic MIC (S. aureus 43300 [3]; +¼ MIC (1.6 μM) C12KKNC12KNH2): 0.5 µg/mL | Antibiotic MIC (S. aureus 43300 [3]; +¼ MIC (1.6 μM) C16(9-ene)KKNC12KNH2): 0.25 µg/mL | Antibiotic MIC (S. aureus 43300 [3]; +½ MIC (3.12 μM) C12K(KNC12K)2NH2): 0.5 µg/mL | Antibiotic MIC (S. aureus 43300 [3]; +½ MIC (3.12 μM) C12KKNC12KNH2): 0.5 µg/mL | Antibiotic MIC (S. aureus 43300 [3]; +⅓ MIC (2.1 μM) C12K(KNC12K)2NH2): 0.5 µg/mL | Antibiotic MIC (S. aureus 43300 [3]; +⅓ MIC (2.1 μM) C12KKNC12KNH2): 0.5 µg/mL | Antibiotic MIC (E. coli 14182; +¼ MIC C12K(NC8K)5NH2): 32 µg/mL | Antibiotic MIC (E. coli 14182; +½ MIC C12K(NC8K)5NH2): 8 to 16 µg/mL | Antibiotic MIC (E. coli 14182; +⅓ MIC C12K(NC8K)5NH2): 32 µg/mL | Antibiotic MIC, None (E. coli 14182; antibiotic alone (Table 15)): 32 to 64 µg/mL | Antibiotic MIC (E. coli 14182; no polymer (None), Table 14): 32 to 64 µg/mL | Antibiotic MIC in presence of C12K(NC8K)7NH2 (SEQ ID NO: 4), +¼ MIC (E. coli 14182; polymer at ¼ of its MIC): 32 µg/mL | Antibiotic MIC in presence of C12K(NC8K)7NH2 (SEQ ID NO: 4), +½ MIC (E. coli 14182; polymer at ½ of its MIC): 8 to 16 µg/mL | Antibiotic MIC in presence of C12K(NC8K)7NH2 (SEQ ID NO: 4), +⅓ MIC (E. coli 14182; polymer at ⅓ of its MIC): 32 µg/mL | Antibiotic MIC (S. aureus 43300 [4]; Table 8): 0.25 µg/mL | Antibiotic MIC (S. aureus 43300 [4]; Table 9): 0.25 µg/mL | Antibiotic MIC (S. aureus 43300 [4]; Table 10): 0.25 µg/mL | Antibiotic MIC (S. aureus 43300 [4]; Table 11): 0.5 µg/mL | Antibiotic MIC (S. aureus 43300 [4]; Table 12): 0.5 µg/mL
